Test system: 454973-116-R2-J3-PDC complex spheroid viability
Assay: Anticancer human tumor 454973-116-R2-J3-PDC patient-derived pancreatic carcinoma cell line growth inhibition [POLQ]
Conditions: for IC50: curve of first compound; for viability, T/C: stronger effect = lower value
Summary of the method: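 Growth inhibition in 3D: complex spheroids (tumor PDC, HUVEC, MSC) treated with POLQ inhibitor combinations; where Cmax unknown, highest tested concentration 10 microM, except SN-38 at 1 microM.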

[1] = second compound 0.0316 µM, first compound 0.0316 µM
[2] = second compound 0.0316 µM, first compound 0.1 µM
[3] = second compound 0.0316 µM, first compound 0.316 µM
[4] = second compound 0.0316 µM, first compound 1 µM
[5] = second compound 0.0316 µM, first compound 3.16 µM
[6] = second compound 0.0316 µM, first compound 10 µM
[7] = second compound 0.1 µM, first compound 0.0316 µM
[8] = second compound 0.1 µM, first compound 0.1 µM
[9] = second compound 0.1 µM, first compound 0.316 µM
[10] = second compound 0.1 µM, first compound 1 µM
[11] = second compound 0.1 µM, first compound 3.16 µM
[12] = second compound 0.1 µM, first compound 10 µM
[13] = second compound 0.316 µM, first compound 0.0316 µM
[14] = second compound 0.316 µM, first compound 0.1 µM
[15] = second compound 0.316 µM, first compound 0.316 µM
[16] = second compound 0.316 µM, first compound 1 µM
[17] = second compound 0.316 µM, first compound 3.16 µM
[18] = second compound 0.316 µM, first compound 10 µM
[19] = second compound 1 µM, first compound 0.0316 µM
[20] = second compound 1 µM, first compound 0.1 µM
[21] = second compound 1 µM, first compound 0.316 µM
[22] = second compound 1 µM, first compound 1 µM
[23] = second compound 1 µM, first compound 3.16 µM
[24] = second compound 1 µM, first compound 10 µM
[25] = second compound 3.16 µM, first compound 0.0316 µM
[26] = second compound 3.16 µM, first compound 0.1 µM
[27] = second compound 3.16 µM, first compound 0.316 µM
[28] = second compound 3.16 µM, first compound 1 µM
[29] = second compound 3.16 µM, first compound 3.16 µM
[30] = second compound 3.16 µM, first compound 10 µM
[31] = second compound 10 µM, first compound 0.0316 µM
[32] = second compound 10 µM, first compound 0.1 µM
[33] = second compound 10 µM, first compound 0.316 µM
[34] = second compound 10 µM, first compound 1 µM
[35] = second compound 10 µM, first compound 3.16 µM
[36] = second compound 10 µM, first compound 10 µM
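Further: spheroids exposed to drugs for seven days before measurement.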
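Wherever viability, T/C is given: percent viability relative to DMSO vehicle control wells taken as 100%.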

## CC(C)n1c(=O)n(C)c2cnc3cc(F)c(-c4ccc(OCCCN5CCCCC5)nc4)cc3c21 + COC1C(OC(N)=O)C(O)C(Oc2ccc3c(O)c(NC(=O)c4ccc(O)c(CC=C(C)C)c4)c(=O)oc3c2C)OC1(C)C
Second compound 0.0316 µM
  IC50: > 10000 nM
Second compound 0.1 µM
  IC50: > 10000 nM
Second compound 0.316 µM
  IC50: > 10000 nM
Second compound 1 µM
  IC50: > 10000 nM
Second compound 3.16 µM
  IC50: > 10000 nM
Second compound 10 µM
  IC50: > 10000 nM
[1]
  viability, T/C: 99.5%
[2]
  viability, T/C: 108%
[3]
  viability, T/C: 114%
[4]
  viability, T/C: 110%
[5]
  viability, T/C: 111%
[6]
  viability, T/C: 85.9%
[7]
  viability, T/C: 107%
[8]
  viability, T/C: 112%
[9]
  viability, T/C: 108%
[10]
  viability, T/C: 114%
[11]
  viability, T/C: 93.7%
[12]
  viability, T/C: 95.6%
[13]
  viability, T/C: 115%
[14]
  viability, T/C: 113%
[15]
  viability, T/C: 113%
[16]
  viability, T/C: 116%
[17]
  viability, T/C: 105%
[18]
  viability, T/C: 88%
[19]
  viability, T/C: 116%
[20]
  viability, T/C: 107%
[21]
  viability, T/C: 115%
[22]
  viability, T/C: 112%
[23]
  viability, T/C: 100%
[24]
  viability, T/C: 93.8%
[25]
  viability, T/C: 118%
[26]
  viability, T/C: 107%
[27]
  viability, T/C: 112%
[28]
  viability, T/C: 116%
[29]
  viability, T/C: 106%
[30]
  viability, T/C: 92.5%
[31]
  viability, T/C: 120%
[32]
  viability, T/C: 103%
[33]
  viability, T/C: 101%
[34]
  viability, T/C: 107%
[35]
  viability, T/C: 101%
[36]
  viability, T/C: 84.9%

## C=CCn1c(=O)c2cnc(Nc3ccc(N4CCN(C)CC4)cc3)nc2n1-c1cccc(C(C)(C)O)n1 + Cc1cccc(N(C)C(=O)C2C(O)CCN2c2nc(C)cc(C(F)(F)F)c2C#N)c1
Second compound 0.0316 µM
  IC50: 470 nM
Second compound 0.1 µM
  IC50: 464 nM
Second compound 0.316 µM
  IC50: 449 nM
Second compound 1 µM
  IC50: 481 nM
Second compound 3.16 µM
  IC50: 479 nM
Second compound 10 µM
  IC50: 452 nM
Second compound 0.0316 µM, first compound 0.00316 µM
  viability, T/C: 109%
Second compound 0.0316 µM, first compound 0.01 µM
  viability, T/C: 103%
[1]
  viability, T/C: 105%
[2]
  viability, T/C: 106%
[3]
  viability, T/C: 71.5%
[4]
  viability, T/C: 9.25%
Second compound 0.1 µM, first compound 0.00316 µM
  viability, T/C: 98%
Second compound 0.1 µM, first compound 0.01 µM
  viability, T/C: 104%
[7]
  viability, T/C: 102%
[8]
  viability, T/C: 108%
[9]
  viability, T/C: 70.7%
[10]
  viability, T/C: 8.44%
Second compound 0.316 µM, first compound 0.00316 µM
  viability, T/C: 96.6%
Second compound 0.316 µM, first compound 0.01 µM
  viability, T/C: 98.9%
[13]
  viability, T/C: 103%
[14]
  viability, T/C: 103%
[15]
  viability, T/C: 68.4%
[16]
  viability, T/C: 7.81%
Second compound 1 µM, first compound 0.00316 µM
  viability, T/C: 113%
Second compound 1 µM, first compound 0.01 µM
  viability, T/C: 97.3%
[19]
  viability, T/C: 104%
[20]
  viability, T/C: 110%
[21]
  viability, T/C: 74.1%
[22]
  viability, T/C: 7.99%
Second compound 3.16 µM, first compound 0.00316 µM
  viability, T/C: 112%
Second compound 3.16 µM, first compound 0.01 µM
  viability, T/C: 106%
[25]
  viability, T/C: 99.7%
[26]
  viability, T/C: 102%
[27]
  viability, T/C: 72.8%
[28]
  viability, T/C: 9.03%
Second compound 10 µM, first compound 0.00316 µM
  viability, T/C: 105%
Second compound 10 µM, first compound 0.01 µM
  viability, T/C: 105%
[31]
  viability, T/C: 97%
[32]
  viability, T/C: 98.8%
[33]
  viability, T/C: 68.5%
[34]
  viability, T/C: 8.81%

## COc1cccc2c1C(=O)c1c(O)c3c(c(O)c1C2=O)CC(O)(C(=O)CO)CC3OC1CC(N)C(O)C(C)O1 (stereo unspecified) + Cc1cccc(N(C)C(=O)C2C(O)CCN2c2nc(C)cc(C(F)(F)F)c2C#N)c1
Second compound 0.0316 µM
  IC50: 59.7 nM
Second compound 0.1 µM
  IC50: 62.8 nM
Second compound 0.316 µM
  IC50: 61.5 nM
Second compound 1 µM
  IC50: 59.8 nM
Second compound 3.16 µM
  IC50: 48.6 nM
Second compound 10 µM
  IC50: 54.6 nM
[1]
  viability, T/C: 72.9%
[2]
  viability, T/C: 25.9%
[3]
  viability, T/C: 22.1%
[4]
  viability, T/C: 10.9%
[5]
  viability, T/C: 0.31%
[6]
  viability, T/C: 0.23%
[7]
  viability, T/C: 71.8%
[8]
  viability, T/C: 29.3%
[9]
  viability, T/C: 26.9%
[10]
  viability, T/C: 8.87%
[11]
  viability, T/C: 1.7%
[12]
  viability, T/C: 0.22%
[13]
  viability, T/C: 70.3%
[14]
  viability, T/C: 30.2%
[15]
  viability, T/C: 24.2%
[16]
  viability, T/C: 9.69%
[17]
  viability, T/C: 0.35%
[18]
  viability, T/C: 0.28%
[19]
  viability, T/C: 67.8%
[20]
  viability, T/C: 30.9%
[21]
  viability, T/C: 26.6%
[22]
  viability, T/C: 9.52%
[23]
  viability, T/C: 0.41%
[24]
  viability, T/C: 0.32%
[25]
  viability, T/C: 56.3%
[26]
  viability, T/C: 38.4%
[27]
  viability, T/C: 25.6%
[28]
  viability, T/C: 6.92%
[29]
  viability, T/C: 0.38%
[30]
  viability, T/C: 0.33%
[31]
  viability, T/C: 63.8%
[32]
  viability, T/C: 33%
[33]
  viability, T/C: 22%
[34]
  viability, T/C: 7.02%
[35]
  viability, T/C: 0.38%
[36]
  viability, T/C: 0.49%

From PubChem BioAssay AID1963846 (Molecular Pharmacology Branch, DTP, NCI, 2024)
